# According to patent US20230085307A1, “PYRIDAZINONE COMPOUND AND HERBICIDE” (NISSAN CHEMICAL CORPORATION, priority 2019, published 2023):
# Assays:
# late watergrass = assay: Test Example 1: herbicidal activity, application before weed generation under submerged conditions (Table 16, symbol A); format: in vivo, late watergrass (Echinochloa oryzicola); conditions: 320 g/ha applied herbicide
# Outline: (§1)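 Emulsion formulation, water-diluted to set dose, was put onto the flooded surface (4 cm depth, alluvial soil) the same day weeds were sown and 2.5-leaf rice transplanted. After 3 weeks at 25-30 °C under glass, each species was rated 0 (≤5% kill) to 5 (≥90% kill).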
# Japanese bulrush = assay: Test Example 1: herbicidal activity, application before weed generation under submerged conditions (Table 16, symbol B); format: in vivo, Japanese bulrush (Schoenoplectus juncoides); conditions: 320 g/ha applied herbicide
# Outline: as §1
# oval-leafed pondweed = assay: Test Example 1: herbicidal activity, application before weed generation under submerged conditions (Table 16, symbol C); format: in vivo, oval-leafed pondweed (Monochoria vaginalis); conditions: 320 g/ha applied herbicide
# Outline: as §1
# barnyard grass [1] = assay: Test Example 3: herbicidal effect by foliage application, Wagner pot (Table 18, symbol H); format: in vivo, barnyard grass (Echinochloa crus-galli); conditions: amount of applied herbicide 320 g/ha
# Outline: (§2)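 Plants were sown in alluvial soil held under 0.1–0.5 cm standing water and grown 14 days in a greenhouse at 25–30 °C. An emulsifiable formulation, water-diluted to the set dose, was then sprayed onto the foliage, and effects were scored three weeks later using previously defined criteria.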
# Chinese sprangletop = assay: Test Example 3: herbicidal effect by foliage application, Wagner pot (Table 18, symbol D); format: in vivo, chinese sprangletop (Leptochloa chinensis); conditions: amount of applied herbicide 320 g/ha
# Outline: as §2
# rice flat sedge = assay: Test Example 3: herbicidal effect by foliage application, Wagner pot (Table 18, symbol E); format: in vivo, rice flat sedge (Cyperus iria); conditions: amount of applied herbicide 320 g/ha
# Outline: as §2
# southern crabgrass [2] = assay: Test Example 4: herbicidal effect by soil treatment (Table 19, symbol F); format: in vivo, southern crabgrass (Digitaria ciliaris); conditions: amount of applied herbicide 320 g/ha
# Outline: (§3)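 Seeds were sown in sterilized diluvial soil and covered with about 1.5 cm of soil. An emulsion formulation diluted with water to a predetermined herbicide amount was sprayed evenly onto the soil surface. Plants grew in a greenhouse at 25° C. to 30° C., and the effect was scored three weeks after application using criteria from an earlier test.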
# green foxtail [3] = assay: Test Example 4: herbicidal effect by soil treatment (Table 19, symbol G); format: in vivo, green foxtail (Setaria viridis); conditions: amount of applied herbicide 320 g/ha
# Outline: as §3
# barnyard grass [4] = assay: Test Example 4: herbicidal effect by soil treatment (Table 19, symbol H); format: in vivo, barnyard grass (Echinochloa crus-galli); conditions: amount of applied herbicide 320 g/ha
# Outline: as §3
# wild oat [5] = assay: Test Example 4: herbicidal effect by soil treatment (Table 19, symbol I); format: in vivo, wild oat (Avena fatua); conditions: amount of applied herbicide 320 g/ha
# Outline: as §3
# blackgrass [6] = assay: Test Example 4: herbicidal effect by soil treatment (Table 19, symbol J); format: in vivo, blackgrass (Alopecurus myosuroides); conditions: amount of applied herbicide 320 g/ha
# Outline: as §3
# Italian ryegrass [7] = assay: Test Example 4: herbicidal effect by soil treatment (Table 19, symbol K); format: in vivo, Italian ryegrass (Lolium multiflorum); conditions: amount of applied herbicide 320 g/ha
# Outline: as §3
# windgrass [8] = assay: Test Example 4: herbicidal effect by soil treatment (Table 19, symbol L); format: in vivo, windgrass (Apera spica-venti); conditions: amount of applied herbicide 320 g/ha
# Outline: as §3
# velvetleaf [9] = assay: Test Example 4: herbicidal effect by soil treatment (Table 19, symbol M); format: in vivo, velvetleaf (Abutilon theophrasti); conditions: amount of applied herbicide 320 g/ha
# Outline: as §3
# redroot pigweed [10] = assay: Test Example 4: herbicidal effect by soil treatment (Table 19, symbol N); format: in vivo, redroot pigweed (Amaranthus retroflexus); conditions: amount of applied herbicide 320 g/ha
# Outline: as §3
# lambsquarters [11] = assay: Test Example 4: herbicidal effect by soil treatment (Table 19, symbol O); format: in vivo, lambsquarters (Chenopodium album); conditions: amount of applied herbicide 320 g/ha
# Outline: as §3
# chickweed [12] = assay: Test Example 4: herbicidal effect by soil treatment (Table 19, symbol P); format: in vivo, common chickweed (Stellaria media); conditions: amount of applied herbicide 320 g/ha
# Outline: as §3
# false cleavers [13] = assay: Test Example 4: herbicidal effect by soil treatment (Table 19, symbol Q); format: in vivo, false cleavers (Galium spurium); conditions: amount of applied herbicide 320 g/ha
# Outline: as §3
# persian speedwell [14] = assay: Test Example 4: herbicidal effect by soil treatment (Table 19, symbol R); format: in vivo, Persian speedwell (Veronica persica); conditions: amount of applied herbicide 320 g/ha
# Outline: as §3
# southern crabgrass [15] = assay: Test Example 5: herbicidal effect by foliage application, plastic box (Table 20, symbol F); format: in vivo, southern crabgrass (Digitaria ciliaris); conditions: foliage application, 320 g/ha, evaluated three weeks after application
# Outline: (§4)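 Plants sown in sterilized diluvial soil and grown 14 days in a greenhouse at 25° C to 30° C, then sprayed on the foliage with the compound's emulsion diluted in water to a predetermined herbicide amount. Injury to weeds and crops scored three weeks after application on a visual rating scale.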
# green foxtail [16] = assay: Test Example 5: herbicidal effect by foliage application, plastic box (Table 20, symbol G); format: in vivo, green foxtail (Setaria viridis); conditions: foliage application, 320 g/ha, evaluated three weeks after application
# Outline: as §4
# barnyard grass [17] = assay: Test Example 5: herbicidal effect by foliage application, plastic box (Table 20, symbol H); format: in vivo, barnyard grass (Echinochloa crus-galli); conditions: foliage application, 320 g/ha, evaluated three weeks after application
# Outline: as §4
# wild oat [18] = assay: Test Example 5: herbicidal effect by foliage application, plastic box (Table 20, symbol I); format: in vivo, wild oat (Avena fatua); conditions: foliage application, 320 g/ha, evaluated three weeks after application
# Outline: as §4
# blackgrass [19] = assay: Test Example 5: herbicidal effect by foliage application, plastic box (Table 20, symbol J); format: in vivo, blackgrass (Alopecurus myosuroides); conditions: foliage application, 320 g/ha, evaluated three weeks after application
# Outline: as §4
# Italian ryegrass [20] = assay: Test Example 5: herbicidal effect by foliage application, plastic box (Table 20, symbol K); format: in vivo, Italian ryegrass (Lolium multiflorum); conditions: foliage application, 320 g/ha, evaluated three weeks after application
# Outline: as §4
# windgrass [21] = assay: Test Example 5: herbicidal effect by foliage application, plastic box (Table 20, symbol L); format: in vivo, windgrass (Apera spica-venti); conditions: foliage application, 320 g/ha, evaluated three weeks after application
# Outline: as §4
# velvetleaf [22] = assay: Test Example 5: herbicidal effect by foliage application, plastic box (Table 20, symbol M); format: in vivo, velvetleaf (Abutilon theophrasti); conditions: foliage application, 320 g/ha, evaluated three weeks after application
# Outline: as §4
# redroot pigweed [23] = assay: Test Example 5: herbicidal effect by foliage application, plastic box (Table 20, symbol N); format: in vivo, redroot pigweed (Amaranthus retroflexus); conditions: foliage application, 320 g/ha, evaluated three weeks after application
# Outline: as §4
# lambsquarters [24] = assay: Test Example 5: herbicidal effect by foliage application, plastic box (Table 20, symbol O); format: in vivo, lambsquarters (Chenopodium album); conditions: foliage application, 320 g/ha, evaluated three weeks after application
# Outline: as §4
# chickweed [25] = assay: Test Example 5: herbicidal effect by foliage application, plastic box (Table 20, symbol P); format: in vivo, common chickweed (Stellaria media); conditions: foliage application, 320 g/ha, evaluated three weeks after application
# Outline: as §4
# false cleavers [26] = assay: Test Example 5: herbicidal effect by foliage application, plastic box (Table 20, symbol Q); format: in vivo, false cleavers (Galium spurium); conditions: foliage application, 320 g/ha, evaluated three weeks after application
# Outline: as §4
# persian speedwell [27] = assay: Test Example 5: herbicidal effect by foliage application, plastic box (Table 20, symbol R); format: in vivo, Persian speedwell (Veronica persica); conditions: foliage application, 320 g/ha, evaluated three weeks after application
# Outline: as §4
structure (smiles),measurement,setting,value
COc1ccc2sc(-c3ccccc3)c(-c3c(O)c(C)nn(C)c3=O)c2c1 [2-164],Herbicidal effect on A: late watergrass (grade 0-5),late watergrass,3 (Herbicidal rate of 40% or more and less than 70%)
same,Herbicidal effect on B: Japanese bulrush (grade 0-5),Japanese bulrush,0 (Herbicidal rate of 5% or less (almost no effect))
same,Herbicidal effect on C: oval-leafed pondweed (grade 0-5),oval-leafed pondweed,0 (Herbicidal rate of 5% or less (almost no effect))
same,herbicidal effect on H: barnyard grass,barnyard grass [1],2 (Herbicidal rate of 20% or more and less than 40%)
same,herbicidal effect on D: Chinese sprangletop,Chinese sprangletop,3 (Herbicidal rate of 40% or more and less than 70%)
same,herbicidal effect on E: rice flat sedge,rice flat sedge,4 (Herbicidal rate of 70% or more and less than 90%)
same,"F: southern crabgrass, herbicidal effect rating",southern crabgrass [2],4 (Herbicidal rate of 70% or more and less than 90%)
same,"G: green foxtail, herbicidal effect rating",green foxtail [3],5 (Herbicidal rate of 90% or more (almost completely withered))
same,"H: barnyard grass, herbicidal effect rating",barnyard grass [4],2 (Herbicidal rate of 20% or more and less than 40%)
same,"I: wild oat, herbicidal effect rating",wild oat [5],1 (Herbicidal rate of 5% or more and less than 20%)
same,"J: blackgrass, herbicidal effect rating",blackgrass [6],0 (Herbicidal rate of 5% or less (almost no effect))
same,"K: Italian ryegrass, herbicidal effect rating",Italian ryegrass [7],2 (Herbicidal rate of 20% or more and less than 40%)
same,"L: windgrass, herbicidal effect rating",windgrass [8],3 (Herbicidal rate of 40% or more and less than 70%)
same,"M: velvetleaf, herbicidal effect rating",velvetleaf [9],0 (Herbicidal rate of 5% or less (almost no effect))
same,"N: redroot pigweed, herbicidal effect rating",redroot pigweed [10],4 (Herbicidal rate of 70% or more and less than 90%)
same,"O: lambsquarters, herbicidal effect rating",lambsquarters [11],4 (Herbicidal rate of 70% or more and less than 90%)
same,"P: chickweed, herbicidal effect rating",chickweed [12],5 (Herbicidal rate of 90% or more (almost completely withered))
same,"Q: false cleavers, herbicidal effect rating",false cleavers [13],2 (Herbicidal rate of 20% or more and less than 40%)
same,"R: persian speedwell, herbicidal effect rating",persian speedwell [14],4 (Herbicidal rate of 70% or more and less than 90%)
same,herbicidal effect on F: southern crabgrass (criteria 0-5),southern crabgrass [15],4 (Herbicidal rate of 70% or more and less than 90%)
same,herbicidal effect on G: green foxtail (criteria 0-5),green foxtail [16],5 (Herbicidal rate of 90% or more (almost completely withered))
same,herbicidal effect on H: barnyard grass (criteria 0-5),barnyard grass [17],1 (Herbicidal rate of 5% or more and less than 20%)
same,herbicidal effect on I: wild oat (criteria 0-5),wild oat [18],4 (Herbicidal rate of 70% or more and less than 90%)
same,herbicidal effect on J: blackgrass (criteria 0-5),blackgrass [19],3 (Herbicidal rate of 40% or more and less than 70%)
same,herbicidal effect on K: Italian ryegrass (criteria 0-5),Italian ryegrass [20],4 (Herbicidal rate of 70% or more and less than 90%)
same,herbicidal effect on L: windgrass (criteria 0-5),windgrass [21],5 (Herbicidal rate of 90% or more (almost completely withered))
same,herbicidal effect on M: velvetleaf (criteria 0-5),velvetleaf [22],3 (Herbicidal rate of 40% or more and less than 70%)
same,herbicidal effect on N: redroot pigweed (criteria 0-5),redroot pigweed [23],5 (Herbicidal rate of 90% or more (almost completely withered))
same,herbicidal effect on O: lambsquarters (criteria 0-5),lambsquarters [24],3 (Herbicidal rate of 40% or more and less than 70%)
same,herbicidal effect on P: chickweed (criteria 0-5),chickweed [25],5 (Herbicidal rate of 90% or more (almost completely withered))
same,herbicidal effect on Q: false cleavers (criteria 0-5),false cleavers [26],5 (Herbicidal rate of 90% or more (almost completely withered))
same,herbicidal effect on R: persian speedwell (criteria 0-5),persian speedwell [27],5 (Herbicidal rate of 90% or more (almost completely withered))
